# Patent US6635432B1, “Peptide potentiation of acid-sensory ion channel in pain” (University of Iowa Research Foundation, priority 2000, dated 2003)
# Where no end group is shown, it is not given here.
# What was measured:
# Type in all cases: cell-based
# ASICα [1] = target: T1, ASICα (Homo sapiens, UniProt P78348); experiment: Two-electrode voltage-clamp of Xenopus oocytes expressing ASICα; set-up: expressed in transfected cells; host or cells: Xenopus laevis oocytes (nuclear injection of pMT3 plasmid); settings: for effect on H+-gated ASICα current (inactivation, sustained current): pH 5, agents 50 μM (A18Famide 25 μM), added prior to and during acidification
# T1 sequence (P78348 1-528): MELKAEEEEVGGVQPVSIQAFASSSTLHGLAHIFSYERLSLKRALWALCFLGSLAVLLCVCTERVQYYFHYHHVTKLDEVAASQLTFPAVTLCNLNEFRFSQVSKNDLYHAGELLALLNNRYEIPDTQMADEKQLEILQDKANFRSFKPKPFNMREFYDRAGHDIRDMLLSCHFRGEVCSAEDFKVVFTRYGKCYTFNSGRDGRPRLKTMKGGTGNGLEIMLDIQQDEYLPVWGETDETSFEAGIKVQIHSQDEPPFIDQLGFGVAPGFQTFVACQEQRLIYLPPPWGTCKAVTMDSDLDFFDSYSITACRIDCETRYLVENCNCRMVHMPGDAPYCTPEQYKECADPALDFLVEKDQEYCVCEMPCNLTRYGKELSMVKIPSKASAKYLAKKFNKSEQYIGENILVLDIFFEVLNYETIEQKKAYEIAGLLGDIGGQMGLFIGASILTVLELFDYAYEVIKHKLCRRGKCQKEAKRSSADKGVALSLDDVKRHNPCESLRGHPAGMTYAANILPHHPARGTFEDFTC
# Description: (§1) Human ASICα was cloned from brain polyA RNA. Rat ASICβ and mouse DRASIC were cloned from DRG RNA. Human BNC1 was cloned as described in Price et al. (1996)(Price, M. P., Snyder, P. M., and Welsh, M. J. (1996). Cloning and expression of a novel human brain Na^+ channel. J Biol Chem 271, 7879-7882). Constructs were cloned into pMT3 for expression.
# (§2) Expression of the cDNA constructs in Xenopus oocytes was accomplished by injection of plasmid DNA into the nucleus of defolliculated albino Xenopus laevis oocytes (Nasco, Fort Atkinson, Wis.) as described previously (Adams, C. M., Snyder, P. M., Price, M. P., and Welsh, M. J. (1998). Protons activate brain Na^+ channel 1 by inducing a conformational change that exposes a residue associated with neurodegeneration. J Biol Chem 273, 30204-30207). Plasmids were injected at concentrations of 100 ng/μl for most experiments. Oocytes were incubated in modified Barth's solution at 18° C. for 12-26 hr after injection. Cells injected with DRASIC were allowed to incubate for 24-48 hr before analysis.
# Whole-cell currents in oocytes were measured using a two-electrode voltage-clamp as previously described (Adams, et al. (1998)). Oocytes were bathed in frog Ringers solution containing, in mM: 116 NaCl, LiCl or KCl, 0.4 CaCl2, MgCl2, 5 4-(2-hydroxyethyl)-1-piperazineethanesulfonic acid (HEPES), pH 7.4. Acidic solutions were buffered with 5 mM 2-(4-morpholino)-ethanesulfonic acid (MES) instead of HEPES. Membrane voltage was held at −60 mV unless otherwise noted. Most peptides and naloxone were obtained from Sigma Chemical Co. (St. Louis, Mont.) and were added to the extracellular solution. The peptide FRRFamide was synthesized by Research Genetics (Huntsville, Ala.).
# [2] = test system: proton-gated currents in cultured rat DRG neurons; experiment: Whole-cell patch-clamp of proton-gated currents in cultured DRG neurons
# Procedure: Rat DRG neurons were cultured from Norway rats as described in Benson et al. (1999)(Benson, C. J., Eckert, S. P., and McCleskey, E. W. (1999). Acid-evoked currents in cardiac sensory neurons: A possible mediator of myocardial ischemic sensation. Circulation Research 84, 921-928). Cells were allowed to incubate overnight at room temperature and studies were done 1 to 2 days after isolation.
# During whole-cell patch-clamping of DRG neurons and transfected HEK-293T cells, the cells were bathed with an extracellular solution that contained, in mM: 128 NaCl, 5 MgCl2, 1.8 CaCl2, 5.4 KCl, 5.55 glucose, 20 HEPES, pH 7.5 or 5. The pipette solution contained, in mM: 120 KCl, 10 NaCl, 2 MgCl2, 5 EGTA, 10 HEPES. Perfusion of cells with different solutions was done by placing the appropriate outlet in front of the cell. Data were recorded with an AXOPATCH 200 (Axon Instruments, Foster City, Calif.) and stored on a digital tape recorder. Digitization was executed by acquiring data at 400 Hz using pClamp6 (Axon Instruments, Foster City, Calif.).
# Whole-cell patch-clamp recordings were used to investigate the effect of FMRFamide on proton-gated currents in cultured rat DRG neurons. As previously reported (Akaike, N., and Ueno, S. (1994). Proton-induced current in neuronal cells. Prog Neurobiol 43, 73-83), acidification to pH 5 produced rapidly activating and inactivating currents in the sensory neurons of the DRG (FIGS. 1A-D). […] The presence of the neuropeptide immediately before acidification also altered inactivation (FIGS. 1C, 1D).
# BNC1 = target: T2, BNC1 (Homo sapiens, UniProt Q16515); experiment: Two-electrode voltage-clamp of Xenopus oocytes expressing BNC1; settings: pH 5
# T2 construct: expressed in transfected cells; host or cells: Xenopus laevis oocytes (nuclear injection of pMT3 plasmid)
# T2 sequence (Q16515 1-512): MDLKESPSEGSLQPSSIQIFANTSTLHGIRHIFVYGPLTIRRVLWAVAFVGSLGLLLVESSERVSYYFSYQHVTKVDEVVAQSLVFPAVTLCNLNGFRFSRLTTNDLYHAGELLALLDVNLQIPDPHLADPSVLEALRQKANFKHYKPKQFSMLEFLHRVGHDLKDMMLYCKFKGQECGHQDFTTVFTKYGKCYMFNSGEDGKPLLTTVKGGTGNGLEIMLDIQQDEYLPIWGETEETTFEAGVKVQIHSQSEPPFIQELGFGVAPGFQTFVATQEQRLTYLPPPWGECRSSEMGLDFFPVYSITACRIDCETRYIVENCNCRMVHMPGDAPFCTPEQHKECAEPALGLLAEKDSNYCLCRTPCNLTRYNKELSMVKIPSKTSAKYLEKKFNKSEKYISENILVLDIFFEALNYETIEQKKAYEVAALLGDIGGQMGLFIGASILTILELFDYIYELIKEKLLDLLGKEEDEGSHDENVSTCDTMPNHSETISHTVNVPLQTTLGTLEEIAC
# Description: as §1, with “expression. The validity of the constructs was confirmed by DNA sequencing.” for “expression.”
# as §2
# (§3) Whole-cell currents in oocytes were measured using a two-electrode voltage-clamp as previously described (Adams, et al. (1998)). […]
# DRASIC = target: T3, DRASIC (Mus musculus, UniProt Q6X1Y6); experiment: Two-electrode voltage-clamp of Xenopus oocytes expressing DRASIC; settings: neuropeptide FF 50 μM added prior to acidification
# T3 construct: expressed in transfected cells; host or cells: Xenopus laevis oocytes (nuclear injection of pMT3 plasmid)
# T3 sequence (Q6X1Y6 1-530): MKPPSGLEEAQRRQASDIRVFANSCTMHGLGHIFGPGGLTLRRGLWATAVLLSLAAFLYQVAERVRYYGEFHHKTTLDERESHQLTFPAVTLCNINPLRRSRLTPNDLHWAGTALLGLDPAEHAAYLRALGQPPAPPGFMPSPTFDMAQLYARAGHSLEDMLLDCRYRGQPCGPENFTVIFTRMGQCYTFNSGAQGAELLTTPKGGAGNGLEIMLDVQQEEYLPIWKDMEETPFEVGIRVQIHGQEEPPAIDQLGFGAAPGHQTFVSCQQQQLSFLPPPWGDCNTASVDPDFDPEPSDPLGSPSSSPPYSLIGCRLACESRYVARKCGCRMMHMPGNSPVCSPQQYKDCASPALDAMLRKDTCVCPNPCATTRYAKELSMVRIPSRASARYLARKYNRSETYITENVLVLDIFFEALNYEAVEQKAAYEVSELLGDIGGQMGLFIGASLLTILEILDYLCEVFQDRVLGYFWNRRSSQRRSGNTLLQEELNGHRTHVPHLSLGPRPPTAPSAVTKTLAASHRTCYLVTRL
# Description: as §1, with “expression. The validity of the constructs was confirmed by DNA sequencing.” for “expression.”
# as §2, §3
# ASICβ = target: T4, ASICβ (Rattus norvegicus, UniProt P55926); experiment: Two-electrode voltage-clamp of Xenopus oocytes expressing ASICβ; settings: pH 5, peptide 50 μM
# T4 construct: expressed in transfected cells; host or cells: Xenopus laevis oocytes (nuclear injection of pMT3 plasmid)
# T4 sequence (P55926 1-559 isoform P55926-3): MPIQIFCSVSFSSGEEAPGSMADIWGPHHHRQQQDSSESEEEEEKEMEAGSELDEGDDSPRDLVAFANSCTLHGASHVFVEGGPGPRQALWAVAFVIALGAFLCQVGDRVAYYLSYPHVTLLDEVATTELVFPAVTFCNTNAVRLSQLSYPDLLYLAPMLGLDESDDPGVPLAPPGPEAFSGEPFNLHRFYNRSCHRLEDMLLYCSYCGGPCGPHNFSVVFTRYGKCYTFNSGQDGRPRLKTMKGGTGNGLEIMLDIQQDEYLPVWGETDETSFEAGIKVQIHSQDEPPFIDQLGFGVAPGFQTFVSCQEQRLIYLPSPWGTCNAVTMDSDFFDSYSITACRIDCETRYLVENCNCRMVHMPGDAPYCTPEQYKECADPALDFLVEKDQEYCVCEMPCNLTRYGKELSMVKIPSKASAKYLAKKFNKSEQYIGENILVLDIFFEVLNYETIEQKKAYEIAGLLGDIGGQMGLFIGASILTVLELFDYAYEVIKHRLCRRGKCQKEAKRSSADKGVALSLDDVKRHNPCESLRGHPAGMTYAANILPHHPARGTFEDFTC
# Description: as §1, with “expression. The validity of the constructs was confirmed by DNA sequencing.” for “expression.”
# as §2, §3
# ASICα [3] = target: T1, ASICα; experiment: Whole-cell patch-clamp of HEK-293T cells transfected with ASICα; set-up: expressed in transfected cells; settings: HEK293 cells; amiloride 100 μM, FMRFamide 100 μM, pH 5
# Description: Human ASICα was cloned from brain polyA RNA. Rat ASICβ and mouse DRASIC were cloned from DRG RNA. […] Constructs were cloned into pMT3 for expression.
# To identify transfected cells, pGreenlantern vector encoding green fluorescent protein (Gibco, Gaithersburg, Md.) was co-transfected with ASICα at a ratio of 1:6; transfected cells were identified using epifluorescence microscopy. Cells were studied 1-2 days after transfection.
# The pipette solution contained, in mM: 120 KCl, 10 NaCl, 2 MgCl2, 5 EGTA, 10 HEPES. Perfusion of cells with different solutions was done by placing the appropriate outlet in front of the cell. Data were recorded with an AXOPATCH 200 (Axon Instruments, Foster City, Calif.) and stored on a digital tape recorder. Digitization was executed by acquiring data at 400 Hz using pClamp6 (Axon Instruments, Foster City, Calif.).
molecule,measurement,setting,value
"metenkephalin-Arg-Phe (YGGFMRF; Met-enkephalin-Arg-Phe; UniProt P01210 261-267, looked up) [MERF]","effect on H+-gated ASICα current (inactivation, sustained current)",ASICα [1],Neither A18Famide nor MERF altered ASICα current
CN1CC[C@]23c4c5ccc(O)c4O[C@H]2[C@@H](O)C=C[C@H]3[C@H]1C5 [morphine],"effect on H+-gated ASICα current (inactivation, sustained current)",ASICα [1],neither morphine nor naloxone altered ASICα current
same,mimicking of the FMRFamide effect on proton-gated current,[2]; morphine 50 μM,did not mimic it
"A18Famide: mammalian FMRFamide-like peptide, terminates with the sequence PQRFamide (AGEGLNSQFWSLAAPQRF-NH2; UniProt O15130 93-110, looked up)","effect on H+-gated ASICα current (inactivation, sustained current)",ASICα [1],Neither A18Famide nor MERF altered ASICα current
Phe-Leu-Phe-Gln-Pro-Gln-Arg-Phe-amide [neuropeptide FF],effect on acid-gated BNC1 currents,BNC1,appeared unaffected
same,effect on inactivation of H+-gated DRASIC currents,DRASIC,slowed the inactivation of H^+-gated DRASIC currents
same,"effect on H+-gated ASICα current (inactivation, sustained current)",ASICα [1],produced only minor effects on inactivation rate but no sustained current
same,"effect on H+-gated ASICα current (inactivation, sustained current)",ASICα [1]; listed as Neuropeptide FF,"subtle effects on ASICα currents, slowing inactivation but not generating appreciable sustained current"
same,"effect on H+-gated ASICβ current (inactivation, sustained current)",ASICβ,appeared unaffected
same,size of effects compared with FMRFamide,"[2]; pH 5, 50 μM each",smaller than those generated by FMRFamide
same,effect on inactivation of proton-gated current and sustained current,"[2]; pH 5, FMRFamide 50-100 μM, neuropeptide FF 50 μM",altered inactivation of proton-gated DRF currents
same,current generated by agent added alone,[2]; without acidification,generated no current on its own
N=C(N)NC(=O)c1nc(Cl)c(N)nc1N [amiloride],effect of amiloride on FMRFamide-induced sustained current,ASICα [3],inhibited
same,effect of amiloride on FMRFamide-induced sustained current,"ASICα [1]; amiloride 1 mM, FMRFamide 50 μM, pH 5",inhibited
C=CCN1CC[C@]23c4c5ccc(O)c4O[C@H]2C(=O)CC[C@@]3(O)[C@H]1C5 [naloxone],effect of naloxone on FMRFamide-induced ASICα sustained current,"ASICα [1]; naloxone 500 μM applied before FMRFamide 50 μM, pH 5",neither morphine nor naloxone altered ASICα current
same,block of the FMRFamide effect on proton-gated current,[2]; naloxone 100 μM,did not block the effect of FMRFamide
